# Data published in patent US11685741B2, “Fluorescent probes” (University of Massachusetts, priority 2017, dated 2023).
# Key:
# [1] = test system: Bovine aortic endothelial cells (BAEC); assay: Confocal imaging of Fe2+ in BAEC cells; type: cell-based; conditions: for fluorescence of cells with sensor only / fluorescence of cells treated with Fe^2+ then Bpy: 10 μM sensor; for fluorescence of cells treated with Fe^2+ then Bpy: 100 μM Fe^2+ overnight, versus Fe^2+ supplement; for fluorescence of cells treated with Fe^2+ then Bpy / fluorescence of Bpy-treated cells: 1 mM Bpy; for fluorescence of Fe^2+-treated cells versus unsupplemented: 100 μM ferrous ammonium sulfate overnight, then 10 μM sensor 30 min; for fluorescence of Bpy-treated cells: versus control cells
# Description: Bovine aortic endothelial cells BAEC cells, at an approximately density of 1.3 million/ml in complete EBM medium, were incubated with 100 μM ferrous ammonium sulfate (FAS, Fe (NH4)2(SO4)2 from a 10 mM stock solution) for overnight at 37° C. in a humid atmosphere of 5% CO2 and then the cells were washed with fresh EBM medium to remove excess Fe^2+. Then cells were incubated with Rh101D (10 μM, from 500 μM stock solution in DMF) at 37° C. for 30 min and then cells were washed with EBM media and then imaged. In addition, some cells were treated firstly with 100 μM Fe^2+ overnight and then the cells were washed with fresh EBM medium. For chelation experiments, Fe^2+-loaded cells or untreated cells were incubated with 1 mM 2,2′-bipyridyl (Bpy) at 37° C. for 30 min, then sensor was added followed by washing with the media, and then imaging was done. Controls were imaged without incubation with Fe^2+ or 2,2′-bipyridyl. HCT-116, a human colon adenocarcinoma cell line were used for concentration determination of Fe^2+ with the help of the ratiometric sensor Rh101D. HCT-116 were maintained in McCoy's 5A medium supplemented with 10% fetal bouvine serum and 5% antibiotic antimycotic in a 5% CO2 atmosphere at 37° C. Cultures were divided 1:2 every 48 h to an approximate cell density of 1.21 million cells/ml and used for experiments after 24 h. All experiments were performed with cells in the logarithmic growth phase.
# A Zeiss LSM 710 laser-scanning confocal microscope system was used for cell imaging experiments in collaboration with a person in the lab. 40× oil-immersion objective lens were used to perform all the experiments. For imaging with the Rh101D sensor, excitation wavelength of the laser was 543 nm and emissions were collected over the range 545-625 nm. For images with MitoTracker Green FM, LysoTracker Deep Red, excitation wavelengths recommended by the manufacturer were 488 nm for MitoTracker, 633 nm for LysoTracker. Emissions were integrated at 492-535 nm (MitoTracker), 650-800 nm (LysoTracker), respectively.
# The ability of Rh101D to detect Fe^2+ in live bovine aortic endothelial cells (BAEC) was investigated by confocal microscopy. […] For Fe^2+ repleting conditions, live BAEC cells were incubated with 100 μM of ferrous ammonium sulfate (Fe (NH4)2(SO4)2) at 37° C. for overnight followed by washing with EBM medium to remove excess Fe^2+ and then 10 μM of Rh101D was added to the culture media and was incubated at 37° C. for 30 min. […] For Fe^2+-depleting conditions, 2,2-bipyridyl (Bpy) which is known to be a selective Fe^2+-chelator was used to chelate Fe^2+[33]. […] This fluorescent intensity is almost the same as that of cells without Fe^2+ or Bpy treatment.
# To explore this, the distribution of exchangeable Fe^2+ pools in live BAEC cells were further investigated using Rh101D, together with colocalization experiments using other dyes—MitoTracker Green FM (a green fluorescent dye which localizes to mitochondria in live cells regardless of mitochondrial membrane potential) and LysoTracker Deep Red (a fluorescent dye that stains acidic compartments such as endosomes and lysosomes in live cells). BAEC cells (without Fe^2+ treatment) were treated with Rh101D, MitoTracker Green FM, and […].
# Bovine aortic endothelial cells (BAEC) were grown at 37° C. in a humid atmosphere of 5% CO2 atmosphere in Endothelial Basal Medium (EBM, Lonza) supplemented with 5% fetal bovine serum (FBS, ATCC). Cultures were divided into 1:2 every 48 h to an approximate cell density of 1.3 million cells/ml and used for experiments after 24 h.
# A Zeiss LSM 710 laser-scanning confocal microscope system was used for cell imaging experiments in collaboration with a person in the lab. 40× oil-immersion objective lens were used to perform all the experiments. For imaging with the NIRh-Fret sensor, excitation wavelength of the laser was 633 nm and emissions were collected over the range 650-850 nm. […]
# Caco-2 cells = assay: Imaging labile iron pools in hepcidin-stimulated Caco-2 cells; type: cell-based, human
# Description: For kinetic experiment, Caco-2 cells (ATCC) were maintained in Dulbecco's minimal essential medium (DMEM, ATCC) supplemented with 10% fetal bovine serum (FBS, ATCC), 100 U/ml penicillin G, and 100 μg/ml streptomycin at 37° C. in a humid atmosphere of 5% CO2 atmosphere. The culture medium was replaced with a fresh medium every 2-3 days. After being nearly confluent, the cells were used for experiment.
# The ability of NIRh-Fret to monitor the changes in cellular labile Fe^2+ stores triggered by hepcidin stimulation, a key iron regulatory hormone produced by the liver which controls iron homeostasis was studied (C. H. Park, et al., J. Biol. Chem., 2001, 276, 7806; G. Nicolas, et al, Blood Cells Mol. Dis., 2002, 29, 327; and T. Ganz, Blood, 2003, 102, 783). […] For Fe^2+ replete conditions, live Caco-2 cells were incubated with 100 μM of ferrous ammonium sulfate (Fe (NH4)2(SO4)2) at 37° C. for 6 h followed by washing with DMEM medium to remove excess Fe^2+ and then 10 μM of NIRh-Fret was added to the culture media and was incubated at 37° C. for 30 min. For hepcidin stimulated condition, Cells was treated first with 100 μM of ferrous ammonium sulfate (Fe (NH4)2(SO4)2) for 1 h, followed by addition of 0.5 μM hepcidin and then incubated for another 5 h.
SMILES,fluorescence of cells with sensor only [1],fluorescence of cells treated with Fe^2+ then Bpy [1],fluorescence of Fe^2+-treated cells versus unsupplemented [1],fluorescence of Bpy-treated cells [1],fluorescence of cells with sensor only (Caco-2 cells; 10 μM NIRh-Fret),"fluorescence of hepcidin-treated, iron supplemented cells versus Fe^2+ supplementation only (Caco-2 cells; 100 μM ferrous ammonium sulfate 1 h, then 0.5 μM hepcidin 5 h)","fluorescence after Fe^2+, hepcidin and Bpy (Caco-2 cells; 40 min 1 mM Bpy, versus Fe^2+ supplementation only)"
CN(C)c1ccc(/C=C/C=N/N2C(=O)c3ccccc3C23c2cc4c5c(c2Oc2c3cc3c6c2CCCN6CCC3)CCCN5CCC4)cc1 [Rh101D],weak fluorescence,marked decrease in fluorescent intensity,significant increase in fluorescent signals,decrease in fluorescence signal,–,–,–
"CCN(CC)c1ccc2c(c1)OC1=C(CCC/C1=C\C=C1\N(C)c3ccccc3C1(C)C)C21c2ccccc2C(=O)N1/N=C\C=C\c1ccc(N(C)C)cc1 (centres unmarked) [NIRh-Fret, (E)-6′-(diethylamino)-2-(((1Z,2E)-3-(4-(dimethylamino)phenyl)allylidene)amino)-4′-(2-((E)-1,3,3-trimethylindolin-2-ylidene)ethylidene)-1′,2′,3′,4′-tetrahydrospiro[isoindoline-1,9′-xanthen]-3-one]",weak fluorescence,marked decrease in fluorescent intensity,significant increase in fluorescent signals,decrease in fluorescence intensity,weak fluorescence,significant increase in fluorescent signals,decrease in fluorescence signal
